Results: patent publication US9730913B2 (THE JOHNS HOPKINS UNIVERSITY, priority 2011, dated 2017)
≈ marks a conversion by molar mass, not a printed value. Where “and” joins values, the source holds several entries; their conditions need not be identical. Equal values may be shown once.

Legend:
[1] = target: wild type TEM-1 β-lactamase (Escherichia coli, UniProt P62593); test: Spectrophotometric nitrocefin hydrolysis inhibition assay, TEM-1; assay type: biochemical; conditions: for IC50: inhibition values are IC50 unless noted
Procedure: (§1) The inhibition of beta lactamase was determined spectrophotometrically. Beta lactamase activity was followed by measuring the change in absorbance upon hydrolysis of nitrocefin, [3-(2,4-dinitrostyryl)-(6R,7R)-7-(2-thienylacetamido)-ceph-3-em-4-carboxylic acid, E-isomer], (Calbiochem, San Diego, Calif., USA) at 486 nm. Inhibition constants (Ki) for the inhibitors are obtained at the desired temperature and solvent conditions by measuring the rate of substrate hydrolysis at increasing amounts of inhibitors. All inhibition assays were performed at 25° C. in 50 mM sodium phosphate, 5% DMSO, pH 7.0, keeping the enzyme concentration at 5 nM and the substrate concentration at 167 μM. Reaction was started by addition of substrate to the corresponding mixture of enzyme and inhibitor preincubated for 10 minutes.

Solubility = assay type: physicochemical
[2] = Microsomal stability (T1/2); assay type: in vitro ADME; conditions: microsomes
HSA = HSA (Homo sapiens, UniProt P02768); test: HSA binding (Kd)
AmpC β-lactamase = AmpC β-lactamase (Escherichia coli, UniProt P00811); test: Spectrophotometric nitrocefin hydrolysis inhibition assay, AmpC
IMP-1 beta-lactamase = IMP-1 beta-lactamase (Serratia marcescens, UniProt P52699); test: Spectrophotometric nitrocefin hydrolysis inhibition assay, IMP-1
AmpC = conditions: read-out: Inhibitory Potency (IC50) AmpC; cited from earlier work
[3] = target: TEM-1 β-lactamase, Drug Resistant Mutants and AmpC β-lactamase; test: Average Ki over TEM-1, drug resistant mutants and AmpC; assay type: biochemical; conditions: mean over TEM-1, TEM-12, TEM-17, TEM-30, TEM-40, AmpC
Procedure: as §1

TEM-1 = TEM-1 (Escherichia coli, UniProt P62593); test: TEM-1 binding enthalpy (ΔH)
[4] = tested on: Methicillin-resistant (MRSA) Staphylococcus aureus; test: Oxacillin MIC in presence of compound, MRSA; assay type: cell-based
[5] = tested on: Vancomycin-resistant (VRSA) Staphylococcus aureus; test: Oxacillin MIC in presence of compound, VRSA; assay type: cell-based
[6] = Oxacillin MIC with compound at 4 μg/mL

Chain of AmpC β-lactamase (P00811 20-377): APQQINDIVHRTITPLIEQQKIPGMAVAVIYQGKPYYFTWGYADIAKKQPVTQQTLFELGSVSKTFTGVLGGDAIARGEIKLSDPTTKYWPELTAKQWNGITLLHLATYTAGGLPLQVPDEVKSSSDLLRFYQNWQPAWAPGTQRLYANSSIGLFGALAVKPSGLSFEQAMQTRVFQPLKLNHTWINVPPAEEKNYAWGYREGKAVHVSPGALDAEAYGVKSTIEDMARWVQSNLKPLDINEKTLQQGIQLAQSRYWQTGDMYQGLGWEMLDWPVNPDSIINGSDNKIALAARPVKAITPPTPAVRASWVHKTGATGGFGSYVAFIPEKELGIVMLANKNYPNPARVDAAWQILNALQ
Chain of HSA (P02768 25-609): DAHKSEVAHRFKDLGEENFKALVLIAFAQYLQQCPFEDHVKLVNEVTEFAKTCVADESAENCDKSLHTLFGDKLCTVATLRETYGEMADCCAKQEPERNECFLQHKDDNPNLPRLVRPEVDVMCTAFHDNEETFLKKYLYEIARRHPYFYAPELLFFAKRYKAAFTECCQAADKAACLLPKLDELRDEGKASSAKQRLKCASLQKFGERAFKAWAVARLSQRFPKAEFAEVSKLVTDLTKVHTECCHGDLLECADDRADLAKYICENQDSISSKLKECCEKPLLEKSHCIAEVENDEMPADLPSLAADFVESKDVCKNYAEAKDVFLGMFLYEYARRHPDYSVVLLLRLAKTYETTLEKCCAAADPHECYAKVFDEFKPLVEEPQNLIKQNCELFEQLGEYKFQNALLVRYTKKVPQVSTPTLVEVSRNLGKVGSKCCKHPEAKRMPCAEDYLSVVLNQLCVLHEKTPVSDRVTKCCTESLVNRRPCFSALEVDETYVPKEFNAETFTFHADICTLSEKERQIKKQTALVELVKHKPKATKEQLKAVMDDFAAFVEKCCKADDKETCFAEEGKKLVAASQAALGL
Chain of wild type TEM-1 β-lactamase (P62593 24-286 limits assumed): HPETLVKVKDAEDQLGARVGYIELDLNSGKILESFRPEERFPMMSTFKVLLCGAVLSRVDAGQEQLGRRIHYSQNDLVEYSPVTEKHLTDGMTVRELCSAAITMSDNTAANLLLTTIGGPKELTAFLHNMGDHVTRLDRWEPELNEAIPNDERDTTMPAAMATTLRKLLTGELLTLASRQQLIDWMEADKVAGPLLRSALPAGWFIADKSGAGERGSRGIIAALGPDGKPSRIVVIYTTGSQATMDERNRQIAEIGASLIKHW
Chain of IMP-1 beta-lactamase (P52699 19-246, looked up): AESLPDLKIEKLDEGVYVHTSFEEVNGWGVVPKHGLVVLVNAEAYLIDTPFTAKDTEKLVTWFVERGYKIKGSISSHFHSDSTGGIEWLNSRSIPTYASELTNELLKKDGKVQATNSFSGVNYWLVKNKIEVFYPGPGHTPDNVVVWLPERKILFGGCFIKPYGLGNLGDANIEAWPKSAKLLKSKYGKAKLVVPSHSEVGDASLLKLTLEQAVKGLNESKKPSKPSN
Chain of TEM-1 (P62593 24-286 limits assumed): as the sequence (P62593 24-286 limits assumed) above

| SMILES | IC50 [1] [nM] | solubility (Solubility) [µM] | half-life [2] [min] | Kd (HSA) | IC50 (AmpC β-lactamase) [nM] | IC50 (IMP-1 beta-lactamase) [nM] | other results |
| --- | --- | --- | --- | --- | --- | --- | --- |
| COc1cccc(COc2cc(NS(=O)(=O)/C=C/c3cccc(Cl)c3)ccc2OC)c1 [ef-rs-09-018] | 702 ± 91 | 50 (≈ 23 µg/mL) | 22 ± 6 | 348 ± 53 nM | 1070 ± 360 | 256 ± 33 |  |
| O=S(=O)(/C=C/c1cccc(Cl)c1)N(Cc1cccc(Cl)c1)c1cccc(OCc2cccc(Cl)c2)c1 [ef-rs-08-052, (E)-N-(3-chlorobenzyl)-N-(3-(3-chlorobenzyloxy)phenyl)-2-(3-chlorophenyl)ethenesulfonamide] |  |  |  |  |  |  | Ki (AmpC β-lactamase): 67 nM; Ki (IMP-1 beta-lactamase): 203 ± 51 nM |
| O=S(=O)(/C=C/c1cccc(Br)c1)Nc1cccc(-c2nnn(Cc3cccc(Cl)c3)n2)c1 |  |  |  |  |  |  | mode of inhibition of TEM-1 beta-lactamase ([1]; double reciprocal plot, FIG. 3): competitive inhibition; Ki [3]: 362 nM; Ki (AmpC β-lactamase): 182 nM |
| COc1ccc(NS(=O)(=O)/C=C/c2cccc([N+](=O)[O-])c2)cc1OCc1cccc(Cl)c1 [ef-rs-05-080] |  | 3 (≈ 1.42 µg/mL) | 37 ± 4 | 4580 nM and 5350 nM | 563 ± 63 | 1100 ± 40 |  |
| COc1ccc(NS(=O)(=O)/C=C/c2cccc(Cl)c2)cc1OCc1cccc(Cl)c1 [ef-rs-04-091] |  | 19 (≈ 8.82 µg/mL) | 70 ± 8 | 4080 nM and 4260 nM | 671 ± 238 | 347 ± 43 | TEM-1 ΔH (TEM-1): +1.75 kcal/mol |
| CC1(C)[C@H](C(=O)O)N2C(=O)C[C@H]2S1(=O)=O [Sulbactam] |  |  |  |  |  |  | IC50 (AmpC): ≥ 3800 nM |
| O=C(O)[C@H]1/C(=C/CO)O[C@@H]2CC(=O)N21 [Clavulanic Acid] |  |  |  |  |  |  | IC50 (AmpC): ≥ 59000 nM |
| O=S(=O)(/C=C/c1cccc(C(F)(F)F)c1)Nc1cccc(-c2nnn(Cc3cccc(Cl)c3)n2)c1 [ef-rs-05-076] |  |  |  |  |  |  | Ki [3]: 176 nM; Ki (AmpC β-lactamase): 80 nM |
| COc1cccc(/C=C/S(=O)(=O)Nc2cccc(OCc3cccc(Cl)c3)c2)c1 [ef-rs-05-054] |  | 6 (≈ 2.58 µg/mL) | 59 ± 6 | 97.5 nM and 202 nM | 555 ± 36 | 734 ± 106 | TEM-1 ΔH (TEM-1): +2.32 kcal/mol |
| COc1ccc(NS(=O)(=O)/C=C/c2cccc(Cl)c2)cc1O [ef-rs-09-014] | 2470 ± 50 | 450 (≈ 153 µg/mL) | < 5 | 2510 ± 1780 nM | 3750 ± 500 | 4690 ± 270 |  |
| COc1cc(NS(=O)(=O)/C=C/c2cccc(Cl)c2)ccc1OCc1cccc(Cl)c1 [ef-rs-09-029] | 406 ± 77 | 8 (≈ 3.71 µg/mL) |  | 484 ± 76 nM | 706 ± 66 | 171 ± 20 |  |
| O=S(=O)(/C=C/c1cccc(Cl)c1)Nc1cccc(OCc2cccc(F)c2)c1 [ef-rs-09-012] | 523 ± 84 | 7 (≈ 2.93 µg/mL) | 81 ± 14 | 49 nM and 52 nM | 846 ± 100 | 157 ± 12 |  |
| O=S(=O)(/C=C/c1cccc(Cl)c1)Nc1cccc(OCc2cccc(Cl)c2)c1 [ef-rs-08-048] |  | 19 (≈ 8.25 µg/mL) | 120 ± 10 | 113 nM and 252 nM | 477 ± 59 | 487 ± 90 | MIC (MRSA) [4 μg/mL] [4, 6]: 2; reduction of Oxacillin MIC ([4]; compound at 4 μg/mL): 8 fold; MIC (VRSA) [4 μg/ml] [5, 6]: 0.25; reduction of Oxacillin MIC ([5]; compound at 4 μg/mL): 8 fold |
| O=S(=O)(/C=C/c1cccc(Cl)c1)N(Cc1cccc(Cl)c1)c1cccc(Cl)c1 [ef-rs-03-075] |  |  |  |  |  |  | Ki ([1]; 25° C., 50 mM sodium phosphate, 5% DMSO, pH 7.0, nitrocefin 167 μM, read-out: Ki TEM-1 (WT)): 82 ± 12 nM; Ki (IMP-1 beta-lactamase): 496 ± 57 nM |
| O=S(=O)(/C=C/c1cccc(Cl)c1)Nc1ccc(OCc2cccc(Cl)c2)cc1 [ef-rs-09-030] | 85 ± 21 | 6 (≈ 2.61 µg/mL) |  | 301 ± 65 nM | 553 ± 58 | 63 ± 8 |  |
